Experimental data published in patent US11377444B2, “Pyridopyrimidine compounds acting as mTORC 1/2 dual inhibitors” (MEDSHINE DISCOVERY INC., priority 2017, dated 2022).
Where two headings read alike, the source gives them in different places.

Assays:
[1] = system: MCF-7 cell; assay: Cell proliferation inhibitory activity (Cell-Titer-Glo), MCF-7; assay type: cell-based; details: Homo sapiens, MCF7, 72 h; 3 days incubation
From the text: (§1) Experimental Embodiment 2: Evaluation of Cell Proliferation Inhibitory Activity
(§2) Experiment objective: To detect cell proliferation inhibitory activity of the tested compounds.
(§3) Experimental principle: The luciferase in the Cell-Titer-Glo reagent produces oxyluciferin using luciferin, oxygen and ATP as reaction substrates, and releases energy in the form of light. Since the reaction of luciferase requires ATP, the total amount of light generated by the reaction is proportional to the total amount of ATP that reflects cell viability.
(§4) Cell lines: MCF-7 cell line […], HT-29 cell line (ATCC-HTB-38), OE21 (ECACC-96062201), NCI-N87 cell line (ATCC-CRL-5822)
(§5) Cell culture medium: (RPMI 1640 culture medium (Invitrogen #1868546; 10% serum Invitrogen #1804958; L-glutamine 1×, Invitrogen #1830863; dual antibiotic Hyclone #J170012))
(§6) Cell Titer-Glo® Luminescent Cell Viability Assay Kit (Promega #G7573)
(§7) The cells were inoculated in a 384- or 96-well plate with a density of 1000 cells per well and 25 μL per well according to the instructions of the cell inoculating plate. The edge wells were not inoculated with cells, and was supplemented with […].
(§8) (i) The mother solution of the compound was 10 mM, and diluted with DMSO to an initial concentration of 4 mM. The compound was added to the compound mother solution, 9 μL per well.
(§9) (ii) The compound was diluted with ECHO liquid-handling workstation. Each well of the cell plate was added with 125 nL compound. Each well of the cell wells in 2nd column and 23rd column was added with 125 nL DMSO, and each of the PBS wells in 1st column and 24th column was added with 125 nL DMSO.
(§10) (iii) Each well of the cell plate was supplemented with 25 μL culture medium, the final volume in each well of the cell plate was 50 μL, […] 3 times dilution, 10 concentrations, each concentration was duplicated in left and right wells, the final DMSO concentration was 0.25%.
(§11) 2.3. After addition of the compound, centrifugation was performed at 1000 rpm for 1 min, and the cell plate was placed in a 37° C., 5% CO2 incubator for 3 days.
(§12) The cell plate was taken out from the incubator and equilibrated at room temperature for 30 minutes. 25 μL Cell-Titer-Glo reagent was added to each well, shaken for one minute to mix thoroughly, centrifuged at 1000 rpm for 1 minute. After 10 minutes, the plate was read on PerkinElmer Envision with a […] reading time was set at 0.2 second.

[2] = Pharmacokinetic evaluation in plasma after IV and PO administration; assay type: in vivo; details: female Balb/c mice; for MRT inf: read-out: MRT0-inf; for MRT last: read-out: MRT0-last
Protocol: Experimental Embodiment 3: Pharmacokinetic Evaluation
The test compound was mixed with […] (Cremophor EL), vortexed and sonicated to prepare a 1 mg/mL near-clear solution, which was filtered with a microporous filter membrane for future use. Female Balb/c mice of 18 to 20 grams were selected and the solution of the test compound was administered intravenously at a dose of 1 or 2 mg/kg. The test compound was mixed with an aqueous solution of 1% Tween 80, 9% polyethylene glycol 400, and 90% water, vortexed and sonicated to prepare 1 mg/mL near-clear solution, which was filtered with a microporous filter membrane for future use.
Female Balb/c mice of 18 to 20 grams were selected, and the solution of the test compound was orally administered at a dose of 2 or 10 mg/kg. The whole blood was collected at a certain time, and prepared into plasma. The drug concentration was analyzed by LC-MS/MS, and the pharmacokinetic parameters were calculated using Phoenix WinNonlin software (Pharsight Corporation, USA).

[3] = system: OE21 cell; assay: Cell proliferation inhibitory activity (Cell-Titer-Glo), OE21; assay type: cell-based; details: OE21, 72 h; 3 days incubation
From the text: as §1, §2, §3, §4, §5, §6, §7, §8, §9, §10, §11, §12

[4] = system: HT-29 cell; assay: Cell proliferation inhibitory activity (Cell-Titer-Glo), HT-29; assay type: cell-based; details: Homo sapiens, HT-29, 72 h, 3 days incubation
From the text: as §1, §2, §3, §4, §5, §6, §7, §8, §9, §10, §11, §12

[5] = system: N87 cell; assay: Cell proliferation inhibitory activity (Cell-Titer-Glo), N87; assay type: cell-based; details: 72 h; 3 days incubation
From the text: as §1, §2, §3, §4, §5, §6, §7, §8, §9, §10, §11, §12

[6] = target: T1, mTOR kinase (mTORC1 and mTORC2 kinase complex) (Homo sapiens, UniProt P42345); assay: In vitro evaluation of mTOR kinase inhibitory activity (DiscoverX ligand-bead competition binding, qPCR readout)
T1 construct: purchased DiscoverX; host or cells: HEK-293
Protocol: Experimental Embodiment 1: In Vitro Evaluation of mTOR Kinase Inhibitory Activity This experiment was performed by DiscoverX. All materials and methods were obtained from DiscoverX.
Kinase activity analysis.
1. Labeled mTOR kinase was stably expressed in HEK-293 cells.
2. Streptavidin magnetic beads were treated with biotinylated small molecule ligands at room temperature for 30 minutes to produce affinity resin for kinase analysis;
3. Ligand beads were blocked with excess biotin and washed with buffer (1% bovine serum albumin, […]) to remove unbound ligand and non-specifically bound ligand;
4. The assembly of kinase and ligand and affinity beads, and the binding reaction between the compound and the three were performed in buffer (20% blocking buffer, 0.17x phosphate buffer, 0.05% Tween […]);
5. The test compounds were dissolved in dimethyl sulfoxide;
6. All test compounds were dissolved in DMSO, and then directly diluted […]
7. The solution was placed in a 384-well polypropylene plate, wherein the volume of each well was 0.02 mL;
8. The plate was shaked for an hour at room temperature;
9. The plate was washed with buffer (1× PBS, 0.05% Tween 20);
10. The affinity beads were resuspended in buffer (1× PBS, 0.05% Tween […] non-biotin affinity ligand) and incubated at room temperature for 30 minutes;
11. The kinase concentration in the eluate was deteced by qPCR.

[7] = system: human breast cancer MCF-7 cell subcutaneous xenograft tumor; assay: In vivo pharmacodynamic study, MCF-7 subcutaneous xenograft tumor; parameters: species or system BALB/c nude mouse; details: 15 mg/kg
From the text: Experimental Embodiment 4: In Vivo Pharmacodynamic Study on BALB/c Nude Mouse Model of Human Breast Cancer MCF-7 Cell Subcutaneous Xenograft Tumor
Experimental objective: To study the efficacy of the test compounds on human breast cancer MCF-7 cell subcutaneous xenograft tumor in BALB/c nude mouse model.
Experimental animals: Female BALB/c nude mice, 6-8 weeks old, weighing 18-22 grams; supplier: Shanghai Xipuer-Bikai Experimental Animal Co., Ltd.
Human breast cancer MCF-7 cells (ECACC, article number: 86012803) were subjected to in vitro monolayer culture under the conditions of EMEM (EBSS)+2 mM […]+1% Non Essential Amino Acids (NEAA) medium containing 10% fetal bovine serum, 100 U/mL penicillin and 100 μg/mL streptomycin, and 37° C., 5% CO2incubator. Conventional digestion treatment was carried out with trypsin-EDTA twice a week for cell passage. When the cell saturation was 80%-90%, and the quantity reached the requirement, the cells were collected, counted and inoculated.
Estrogen tablets (0.18 mg) were inoculated into the left back of each mouse three days before cell inoculation, 0.2 mL (1×10^7) MCF-7 cells (added with matrigel, volume ratio of 1:1) were subcutaneously inoculated into the right back of each mouse. When the average volume of tumor reached 142 mm^3, the mice were divided into groups and began to be administrated.
The test compounds were prepared into clear solutions of 0.75 mg/mL, 1.5 mg/mL and 3 mg/mL. The vehicles were 5% DMSO+30% polyethylene glycol 300+65% water.
The experimental indexes were used for investigating whether the growth of the tumors had been inhibited, delayed or cured. The diameters of the tumors were measured with vernier calipers twice a week. The calculation formula of the tumor volume was: V=0.5a×b^2, wherein a and b represent the long and short diameters of the tumor respectively.
The antitumor efficacy of the compound was evaluated by TGI (%) or relative tumor proliferation rate T/C (%). TGI (%) reflects the inhibition rate of the tumor growth. Calculation of TGI (%): TGI (%)=[1−(average tumor volume at the end of administration in the treatment group−average tumor volume at the beginning of administration in the treatment group)/(average tumor volume at the end of treatment in the vehicle control group−average tumor volume at the beginning of treatment in the vehicle control group)]×[…].
Relative tumor proliferation rate T/C (%): The calculation formula was as follows: T/C %=TRTV/CRTV at the beginning of the treatment (TRTV: treatment group RTV; CRTV: negative control group RTV). The relative tumor volume (RTV) was calculated according to the results of tumor measurement. The calculation formula was RTV=Vt/V0, wherein V0 is the average tumor volume measured during administration of the groups (i.e. d0), and Vt is the average tumor volume during a certain measurement, the TRTV and CRTV were taken on the same day.
Statistical analysis included the mean and standard error (SEM) of tumor volume at each time point in each group. […] The comparison between two groups was analyzed by T-test, and the comparison between three or more groups was analyzed by one-way ANOVA.

Work on CNC(=O)c1cccc(-c2ccc3c(N4CCOC[C@@H]4C)nc(N4CCOC5(CC5)C4)nc3n2)c1 [Embodiment 1] yielded an IC50 [1] of 0.155 µM, an AUCExtra ([2]; IV 2 mg/kg) of 0.124% and an AUMCExtra ([2]; IV 2 mg/kg) of 1.27%. It also gave a Tlast ([2]; IV 2 mg/kg) of 12 h, an AUCExtra ([2]; PO 10 mg/kg) of 0.174% and an AUMCExtra ([2]; PO 10 mg/kg) of 1.83%. The Tlast ([2]; PO 10 mg/kg) was 24.0 h, the AUC(0-inf) ([2]; mouse, IV 2 mg/kg) was 7.42 µM·h and the AUC(0-t) ([2]; mouse, IV 2 mg/kg) was 7.41 µM·h. The C0 ([2]; mouse, IV 2 mg/kg) was 7.2 µM, the clearance ([2]; mouse, IV 2 mg/kg) was 9.45 mL/min/kg and the half-life ([2]; mouse, IV 2 mg/kg) was 1.65 h. For the same compound, the MRT inf ([2]; mouse, IV 2 mg/kg) was 1.38 h, the MRT last ([2]; mouse, IV 2 mg/kg) was 1.2 h and the Vd ([2]; mouse, IV 2 mg/kg, read-out: Vdss) was 0.793 L/kg. The AUC(0-inf) ([2]; mouse, PO 10 mg/kg) was 35 µM·h, the AUC(0-t) ([2]; mouse, PO 10 mg/kg) was 35 µM·h and the Cmax ([2]; mouse, PO 10 mg/kg) was 15.1 µM. It also gave a Tmax ([2]; mouse, PO 10 mg/kg) of 0.25 h, a bioavailability ([2]; mouse, PO 10 mg/kg) of 94.4% and a half-life ([2]; mouse, PO 10 mg/kg) of 3.33 h. It also gave an MRT inf ([2]; mouse, PO 10 mg/kg) of 2.74 h, an MRT last ([2]; mouse, PO 10 mg/kg) of 2.69 h and an IC50 [3] of 0.313 µM. It also gave an IC50 [4] of 0.485 µM, an IC50 [5] of 0.061 µM and a Kd [6] of 0.00085 µM.
With C[C@H]1COCCN1c1nc(N2CCOC3(CCC3)C2)nc2nc(-c3cccc(C(N)=O)c3)ccc12 [Embodiment 44] the IC50 [1] was 0.171 µM, the T/C [7] was 50.58% and the TGI [7] was 65.23%. For the same compound, the “RTV (27th day)” value ([7]; 27th day) was 2.11 ± 0.39, the “Tumor volume (27th day)” value ([7]; 27th day, mean ± SEM) was 298 ± 55 mm^3 and the “Tumor volume (day 0)” value ([7]; day 0, mean ± SEM) was 143 ± 13 mm^3. For the same compound, the IC50 [5] was 0.089 µM and the Kd [6] was 0.00024 µM.
CNC(=O)c1cccc(-c2ccc3c(N4CCOC[C@@H]4C)nc(N4CC5(CCC5)OC[C@@H]4C)nc3n2)c1 [Embodiment 30] gave an IC50 [3] of 0.158 µM, an IC50 [4] of 0.442 µM and a Kd [6] of 0.00044 µM.
